In brackets after ≈: the same amount, converted by molar mass. Like-named read-outs stand apart in the source and are kept apart here.
How the values were obtained:
[1] = system: C. difficile strain M7404 (RT027); assay: In vivo murine model of CDI treatment; set-up: species or system C57BL/6J mice
Procedure: Disease Treatment Model. These experiments were performed as previously described. Mice were humanely killed at the onset of severe disease or at the end of the experiment (day 4), as previously described.
Statistical Analysis. Statistical analysis was performed using Prism 7 (GraphPad Software). The Kaplan–Meier survival curves were assessed using a log-rank (Mantel–Cox) test. Weight loss, spore shedding, fecal consistency, and physiological appearance data were analyzed by one-way ANOVA with a post hoc Tukey’s multiple comparison test. Differences in data values were considered significant at a p value of <0.05.
Figure 3 C57BL/6J mice (n = 5 per group) were infected with 10^5 spores of C. difficile strain M7404 (RT027). Six hours post-infection and then every 12 h thereafter, mice were administered either 10% DMSO (blue) or 2.5 mg (100 mg/kg in 10% DMSO) of compound 40 (red) by oral gavage. Mice were monitored daily for survival (a) and weight loss relative to day 0, which was the day of infection (b). Fecal spore load at 1-day post-infection was determined by plating (c). Data are presented as CFU/gram feces, with each point representing a single mouse. Mouse cages were scored on day 1 post-infection for appearance (d) and mice were individually assessed for fecal consistency (e) and physiological appearance (f). Data represent the mean ±S.E.M. and statistical significance was assessed using a log-rank (Mantel–Cox) test or one-way ANOVA with a post hoc Tukey’s multiple comparison test. […]
The murine model of CDI was conducted with project collaborators at Monash University. The murine model of CDI was performed by pretreating cohorts of five mice that had been earlier infected via oral gavage with hypervirulent M7404 C. difficile spores. The infection was allowed to develop for 12 h before the trial drug was administered every 12 h for five days. The mice received a single dosage of 2.5 mg of […] (i.e.
100 mg/kg for an average 25 g mouse) administered in a solvent mixture of 10% DMSO and H2O at each 12 h dosing period. The mice body weight was checked every day. If a mouse lost 10% of its body weight in the first 24 h, then the infection was developing, and the mouse was separated from the trial and culled for ethical reasons. The whole survival rate for every drug cohort was utilized to measure effectiveness of that drug.
Other physiological parameters such as cage appearance scores and faecal consistency scores were additional measures for the efficacy of the drug in this murine trial. The experimental data of the in vivo CDI model can be found in Section 3.3.3 and the experimental procedures can be found in Section 6.4.3.
Compound 40 was selected for a murine model of CDI study because of its better antimicrobial potency against C. difficile and its better water solubility profile (Section 3.2.7). Compound 40 was prepared on a larger scale i.e. nearly 300 mg for the purpose of in vivo mouse model of CDI at Monash University. […]
In the secondary CDI mouse model trial, the solution (10% v/v DMSO/H2O) of the compound 40 was ad-ministered to mice by oral gavage.

A. baumannii ATCC 19606 = assay: CO-ADD MIC assay, A. baumannii ATCC 19606; assay type: cell-based; details: Acinetobacter baumannii, ATCC19606, Table S1
Text: (§1) The N-arytriazole and N-naphthyltriazole peptidomimetics were subjected to antimicrobial screening. […] Vancomycin, colistin, fluconazole, and tamoxifen were used as positive controls (see Table 1 for details).
(§2) Secondary screening (MRSA and Gram-negative bacteria) and cytotoxicity assay–performed by the Community for Open Antimicrobial Drug Discovery (CO-ADD). Samples were provided to CO-ADD [29] for antimicrobial screening by whole cell growth inhibition assays.
(§3) Bacterial Inhibition–MIC Assay. These were performed as described previously.

C. difficile 132 (RT027) = assay: Primary MIC assay, C. difficile 132 (RT027); assay type: cell-based, Clostridioides difficile; details: Table 1; for MIC: Clostridioides difficile, read-out: MIC C. difficile 132 (RT027)
Procedure: as §1
(§4) Primary screening (Gram-positive bacteria). Primary MIC assays were performed as described by the Clinical and Laboratory Standards Institute for aerobic and anaerobic bacteria. MIC values for vancomycin were within acceptable QC ranges.

[2] = Cytotoxicity (CC50) assay by CO-ADD; assay type: cell-based, human; details: human, HEK293 cells (ATCC CRL-1573); Table 1; cytotoxicity on HEK293 cells, tested at ≤32 µg/mL
Text: as §1, §2
Cytotoxicity Assay. These were performed as described previously.

E. coli ATCC 25922 [3] = assay: CO-ADD MIC assay, E. coli ATCC 25922; assay type: cell-based; details: Escherichia coli, ATCC25922, Table S1
Text: as §1, §2, §3

C. difficile ATCC 700057 = assay: Primary MIC assay, C. difficile ATCC 700057; assay type: cell-based, Clostridioides difficile; details: Table 1; for MIC: Clostridioides difficile, ATCC700057, read-out: MIC C. difficile ATCC 700057
Procedure: as §1, §4

S. pneumoniae ATCC 49619 = assay: Primary MIC assay, S. pneumoniae ATCC 49619; assay type: cell-based, Streptococcus pneumoniae; details: Streptococcus pneumoniae, ATCC49619; Table 1; read-out: MIC S. pneumoniae ATCC 49619
Procedure: as §1, §4

[4] = Comparative solubility assay (solubility ratio relative to compound 1); assay type: physicochemical
Text: While the selectivity ratio could be more substantial, this is acceptable for the future development of these gastrointestinal focused compounds. […] These outcomes were confirmed with no issues during the mouse model trials with sufficient solubility in the dosage regimen. Variations on the triazole and O-naphthyl substituents could be made in future studies with the view of enhancing antibacterial activity against C. difficile.

S. aureus NCTC 10442 = assay: Primary MIC assay, S. aureus NCTC 10442 (MRSA); assay type: cell-based; details: Staphylococcus aureus, MRSA
Procedure: as §1, §4

human erythrocytes = assay: Hemolysis assay, HC50 determination; assay type: cell-based
Procedure: Hemolysis assay (human erythrocytes)–HC50 determination. These were performed as described previously.

E. faecalis ATCC 29212 = assay: Primary MIC assay, E. faecalis ATCC 29212; assay type: cell-based, Enterococcus faecalis; details: Enterococcus faecalis, ATCC29212; Table 1; read-out: MIC E. faecalis ATCC 29212
Procedure: as §1, §4

S. aureus ATCC 29213 = assay: Primary MIC assay, S. aureus ATCC 29213; assay type: cell-based; details: Staphylococcus aureus, ATCC29213; Table 1; read-out: MIC S. aureus ATCC 29213
Procedure: as §1, §4

C. albicans ATCC 90028 = assay: CO-ADD MIC assay, C. albicans ATCC 90028; assay type: cell-based; details: Candida albicans, ATCC90028, Table S1
Text: as §1, §2

[5] = system: Cryptococcus neoformans var. grubii ATCC 208821; assay: CO-ADD MIC assay, C. neoformans var. grubii ATCC 208821; assay type: cell-based; details: for MIC: Cryptococcus neoformans, ATCC208821, Table S1; for MIC C. neoformans var. grubii ATCC 208821: Table S1
Text: as §1, §2

P. aeruginosa ATCC 27853 = assay: CO-ADD MIC assay, P. aeruginosa ATCC 27853; assay type: cell-based; details: Pseudomonas aeruginosa, ATCC27853, Table S1
Text: as §1, §2, §3

E. coli ATCC 25922 [6] = assay: Primary MIC assay, E. coli ATCC 25922; assay type: cell-based; details: Escherichia coli, ATCC25922; Table 1; read-out: MIC E. coli ATCC 25922
C. difficile = assay: MIC against C. difficile, strain not given; assay type: cell-based; details: Clostridioides difficile, strains of Table 1
Procedure: as §4

[7] = system: K. pneumoniae ATCC 700603; assay: CO-ADD MIC assay, K. pneumoniae ATCC 700603; assay type: cell-based; details: Klebsiella pneumoniae, ATCC700603, Table S1, multi-drug resistant
Text: as §1, §2, §3

S. aureus ATCC 43300 = assay: CO-ADD MIC assay, S. aureus ATCC 43300 (MRSA); assay type: cell-based; details: Staphylococcus aureus, MRSA, read-out: MIC S. aureus ATCC 43300
Text: as §1, §2, §3

[8] = MRSA / NCTC 10442 / NCTC 104422, Table 2, read-out: MIC S. aureus NCTC 104422
[9] = Table 1, read-out: MIC S. aureus NCTC 10442
[10] = Table 1, lysis of human erythrocytes
[11] = Table 2, footnote says lysis of sheep erythrocytes
[12] = Table S1, footnote says lysis of sheep erythrocytes

SMILES | MIC (A. baumannii ATCC 19606) [µg/mL] | MIC (C. difficile 132 (RT027)) [µg/mL] | MIC C. difficile 132 (RT027) (C. difficile 132 (RT027)) [µg/mL] | CC50 [2] [µg/mL] | MIC (E. coli ATCC 25922 [3]) [µg/mL] | MIC (C. difficile ATCC 700057) [µg/mL] | MIC C. difficile ATCC 700057 (C. difficile ATCC 700057) [µg/mL] | MIC (S. pneumoniae ATCC 49619) [µg/mL] | relative solubility ratio (relative to compound 1) [4] | MIC (S. aureus NCTC 10442; [9]) [µg/mL] | HC50 (human erythrocytes; [10]) [µg/mL] | HC50 (human erythrocytes; [12]) [µg/mL] | MIC (E. faecalis ATCC 29212) [µg/mL] | MIC (S. aureus ATCC 29213) [µg/mL] | MIC (C. albicans ATCC 90028) [µg/mL] | MIC [5] [µg/mL] | MIC (P. aeruginosa ATCC 27853) [µg/mL] | MIC (E. coli ATCC 25922 [6]) [µg/mL] | MIC [7] [µg/mL] | MIC (S. aureus ATCC 43300; Table S1, CO-ADD) [µg/mL] | other results
CC(C)CCc1cn(-c2c(OCC(=O)N[C@H](CCCCN)C(=O)N[C@H](CCCNC(=N)N)Cn3cc(C4CCCCC4)nn3)ccc3ccccc23)nn1.Cl.Cl [Compound 40, (R)-6-Amino-N-((R)-1-(4-cyclohexyl-1H-1,2,3-triazol-1-yl)-5-guanidinopentan-2-yl)-2-(2-((1-(4-isopentyl-1H-1,2,3-triazol-1-yl)naphthalen-2-yl)oxy)acetamido)hexanamide dihydrochloride] | 32 | 8 | 8 | 32 | 32 | 8 | 8 | 16 | 5 | 16 | 32 | 32 | 32 | 16 | > 32 | 4 to 8 | 32 | 64 | > 32 | 8 | disease onset compared to mice treated with DMSO ([1]; 100 mg/kg oral gavage): delayed disease onset; effect on spore numbers shed in the feces ([1]; 1-day post-infection): no effect; greater survival compared with mice treated with DMSO ([1]; day 1 post-infection): 40%; individual fecal score vs DMSO group ([1]; day 1 post-infection): no significant difference; overall cage appearance score compared to DMSO ([1]; day 1 post-infection): lower; physiological appearance score vs DMSO group ([1]; day 1 post-infection): no significant difference; survival outcome ([1]; day 2): succumbed to infection by day 2; survival observed after 24 h ([1]; mice, 100 mg/kg in 10% DMSO by oral gavage every 12 h, DMSO control 40%): 80%; effect on mouse weight ([1]; weight loss relative to day 0): no effect; MIC (S. aureus NCTC 10442; [8]): 16 µg/mL; HC50 (human erythrocytes; [11]): 32 µg/mL; MIC C. neoformans var. grubii ATCC 208821 [5]: 4 µg/mL; MIC (C. difficile): 8 µg/mL; MIC (S. aureus ATCC 43300; Table 2): 8 µg/mL
CC(C)CCc1cn(-c2c(OCC(=O)N[C@H](CCCCN)C(=O)N[C@H](CCCNC(=N)N)Cn3cc(Cc4ccccc4)nn3)ccc3ccccc23)nn1.Cl.Cl [Compound 42] | 32 | 8 | 8 | 32 | 32 | 8 | 8 | 8 | 4 | 8 | 32 | 32 | 8 | 8 | > 32 | 4 to 8 | 32 | 32 | > 32 | 8 | MIC (S. aureus NCTC 10442; [8]): 8 µg/mL; HC50 (human erythrocytes; [11]): 32 µg/mL; MIC C. neoformans var. grubii ATCC 208821 [5]: 8 µg/mL; MIC (C. difficile): 8 µg/mL; MIC (S. aureus ATCC 43300; Table 2): 8 µg/mL
CC(C)CCOc1ccccc1-n1nncc1COCC(=O)N[C@H](CCCCN)C(=O)N[C@H](CCCNC(=N)N)Cn1cc(CC2CCCCC2)nn1 [Compound 49] | > 32 | > 32 |  | > 32 | > 32 | > 32 |  | > 32 |  | > 32 | 17.1 | 17.1 | > 32 | 32 (≈ 43.4 µM) | > 32 | > 32 | > 32 | > 32 | > 32 | 32 (≈ 43.4 µM) | 
CC(C)CCOc1ccccc1-n1nncc1COCC(=O)N[C@H](CCCCN)C(=O)N[C@H](CCCNC(=N)N)Cn1cc(Cc2ccccc2)nn1 [Compound 50] | > 32 | > 32 |  | > 32 | > 32 | > 32 |  | > 32 |  | > 32 | 19.8 | 19.8 | > 32 | 32 (≈ 43.8 µM) | > 32 | > 32 | > 32 | > 32 | > 32 | 32 (≈ 43.8 µM) | 

Source: PMC8388771, “Cationic Peptidomimetic Amphiphiles Having a N-Aryl- or N-Naphthyl-1,2,3-Triazole Core Structure Targeting Clostridioides (Clostridium) difficile: Synthesis, Antibacterial Evaluation, and an In Vivo C. difficile Infection Model” (Antibiotics, 2021)
